Data: publication PMC7729925, “Selective hepatitis B and D virus entry inhibitors from the group of pentacyclic lupane-type betulin-derived triterpenoids” (Scientific Reports, 2020)
Where “and” joins values, the source holds several entries; their conditions need not be identical. Equal values may be shown once.

What was measured:
[1] = target: T1, NTCP (Homo sapiens, UniProt Q14973); experiment: [3H]preS1 (myr-preS1_2-48 lipopeptide) binding inhibition in NTCP-HEK293 cells; conditions: for IC50: NTCP-HEK293 cells; for Selectivity index: ratio of mean IC50 [3H]TC transport inhibition / IC50 [3H]preS1 binding inhibition
T1 construct: expressed in transfected cells
T1 sequence (Q14973 1-349): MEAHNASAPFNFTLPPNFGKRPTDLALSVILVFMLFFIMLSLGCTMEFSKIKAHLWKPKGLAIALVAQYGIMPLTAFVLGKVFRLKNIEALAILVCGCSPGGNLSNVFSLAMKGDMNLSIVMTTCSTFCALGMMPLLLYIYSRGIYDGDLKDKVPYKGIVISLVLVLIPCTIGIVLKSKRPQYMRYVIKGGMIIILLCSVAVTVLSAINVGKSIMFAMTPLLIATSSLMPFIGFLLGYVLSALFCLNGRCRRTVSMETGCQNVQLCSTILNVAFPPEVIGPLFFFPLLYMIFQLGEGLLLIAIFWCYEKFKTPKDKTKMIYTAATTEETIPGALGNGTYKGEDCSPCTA
Method: (§1) The major goal of the present study was to analyze in parallel the effect of inhibitors on both, bile acid transport via NTCP and myr-preS1_2-48 lipopeptide binding to NTCP in a cell culture system. […] NTCP-HEK293 cells were seeded onto 96-well plates and were incubated with tetracycline in order to induce expression of the human NTCP protein. […] Experiments were performed with solvent alone (set to 100%) and with increasing concentrations of the indicated inhibitors. […] Half maximal inhibitory concentrations (IC50) were calculated by nonlinear regression analysis using the equation log(inhibitor) versus response (GraphPad Prism). […] Data represent means ± SD of quadruplicate determinations of representative experiments. […] In parallel, [^3H]preS1 peptide binding experiments were performed with a tritium-labelled myr-preS1_2-48 lipopeptide -HBV subgenotype D3- that was purchased from Pharmaron (120 Ci/mmol, 1 mCi/ml, Cardiff, UK). […] Experiments were stopped after 10 min by two-times washing with ice-cold PBS. For 0% uptake/binding control, the NTCP-HEK293 cells were not induced with tetracycline (-tet). […] Transport rates and [^3H]preS1 binding were determined in counts per minute (cpm). […] IC50 values were calculated from quadruplicate determinations by GraphPad Prism 6 (GraphPad, San Diego, CA, USA).

[2] = target: T1, NTCP; experiment: [3H]TC transport (bile acid uptake) inhibition in NTCP-HEK293 cells; format: cell-based; conditions: for [3H]TC transport inhibition (in words): 0.1–1,000 µM
Method: as §1

[3] = IC50 ([3H]preS1 binding), 95% confidence interval, inhibition of 5 nM [3H]preS1 binding, 10 min, 37 °C
[4] = 95% confidence interval, inhibition of 1 µM [3H]TC uptake, NTCP-HEK293 cells, 10 min, 37 °C, read-out: IC50 ([3H]TC uptake)
[5] = 95% confidence interval, inhibition of 5 nM [3H]preS1 binding, 10 min, 37 °C, read-out: IC50 ([3H]preS1 binding)
[6] = mean IC50, 5 nM [3H]preS1, standard pH 7.4, read-out: IC50 [3H]preS1 binding inhibition
[7] = mean IC50, […] µM [3H]TC, NTCP-HEK293 cells, standard pH 7.4, read-out: IC50 [3H]TC transport inhibition

SMILES | IC50 [2, 4] [µM] | IC50 [1, 5] [µM] | IC50 [1, 6] | Selectivity index [1] | also measured
C=C(C)[C@@H]1CC[C@]2(C)CC[C@]3(C)[C@H](CC[C@@H]4[C@@]5(C)CC[C@H](O)C(C)(C)[C@@H]5CC[C@]43C)[C@@H]12 [Compound 3, Lupeol] | > 1000 |  |  |  | IC50 [1, 3]: 26.9 to 97.9 µM; IC50 [2]: > 1000 µM
C=C(C)[C@@H]1CC[C@]2(C(=O)OC)CC[C@]3(C)[C@H](CC[C@@H]4[C@@]5(C)CC[C@H](O)C(C)(C)[C@@H]5CC[C@]43C)[C@@H]12 [Compound 5, Methyl betulinate] |  |  |  |  | IC50 [1, 3]: 12.7 to 83.5 µM; IC50 ([2]; read-out: IC50 ([3H]TC uptake)): 47.1 to 100 µM
C=C(C)C1CCC2(C=NO)CCC3(C)C(CCC4C5(C)CCC(O)C(C)(C)C5CCC43C)C12 (centres unmarked) [Compound 6, Betulinaldehyde oxime] | 360 to 759 | 6.61 to 18.3 | 11 µM | 48 | 
C=C(C)[C@@H]1CC[C@]2(COC(=O)CBr)CC[C@]3(C)[C@H](CC[C@@H]4[C@@]5(C)CC[C@H](O)C(C)(C)[C@@H]5CC[C@]43C)[C@@H]12 [Compound 7, 28-O-(Bromoacetyl)betulin] | 63.5 to 126 | 5.28 to 11.1 |  | 11 | 
C=C(C)[C@@H]1CC[C@]2(COC(=O)CCC(=O)O)CC[C@]3(C)[C@H](CC[C@@H]4[C@@]5(C)CC[C@H](O)C(C)(C)[C@@H]5CC[C@]43C)[C@@H]12 [Compound 8, 28-O-Succinoylbetulin] | 5.35 to 10.6 | 1.61 to 4.11 | 2 to 3 µM | 3 | IC50 [3H]preS1 binding inhibition at pH 5.5 versus pH 7.4 ([1]; pH lowered from 7.4 to 5.5): did not change; IC50 ([2]; pH shift experiment, pH 5.5 (DMEM acidified with HCl), read-out: IC50 [3H]TC uptake inhibition at pH 5.5): 200 µM; IC50 ([2]; pH shift experiment, pH 7.4, read-out: IC50 [3H]TC uptake inhibition at pH 7.4): 8 µM
C=C(C)[C@@H]1CC[C@]2(COC(=O)CCC(=O)O)CC[C@]3(C)[C@H](CC[C@@H]4[C@@]5(C)CC[C@H](OC(=O)CCC(=O)O)C(C)(C)[C@@H]5CC[C@]43C)[C@@H]12 [Compound 9, 3,28-Di-O-succinoylbetulin] | 3.11 to 5.02 | 2.94 to 10.1 | < 10 µM | 1 | 
C=C(C)[C@@H]1CC[C@]2(COC(=O)CC(C)(C)CC(=O)O)CC[C@]3(C)[C@H](CC[C@@H]4[C@@]5(C)CC[C@H](O)C(C)(C)[C@@H]5CC[C@]43C)[C@@H]12 [Compound 10, 28-O-(3,3-Dimethylglutaroyl)betulin] | 3 to 5.91 | 2.48 to 7.02 | < 10 µM | 1 | 
C=C(C)[C@@H]1CC[C@]2(C(=O)O)CC[C@]3(C)[C@H](CC[C@@H]4[C@@]5(C)CC[C@H](OC(=O)CC(C)(C)CC(=O)O)C(C)(C)[C@@H]5CC[C@]43C)[C@@H]12 [Compound 11, 3-O-(3,3-Dimethylglutaroyl)betulinic acid] | 3.08 to 4.53 | 3 to 5.21 |  | 1 | 
C=C(C)[C@@H]1CC[C@]2(COC(=O)CC(C)(C)CC(=O)O)CC[C@]3(C)[C@H](CC[C@@H]4[C@@]5(C)CC[C@H](OC(=O)CC(C)(C)CC(=O)O)C(C)(C)[C@@H]5CC[C@]43C)[C@@H]12 [Compound 12, 3,28-Di-O-(3,3-dimethylglutaroyl)betulin] | 4.17 to 10.7 | 4.97 to 10.1 |  | 1 | 
C=C(C)[C@@H]1CC[C@]2(COC3CCCCO3)CC[C@]3(C)[C@H](CC[C@@H]4[C@@]5(C)CC[C@H](O)C(C)(C)[C@@H]5CC[C@]43C)[C@@H]12 (some centres unmarked) [Compound 13, 28-(Tetrahydro-2H-pyran-2-yl)betulin] | 116 to 628 | 9.34 to 19.5 | 11 to 50 µM | 19 | 
C=C(C)[C@@H]1CC[C@]2(COC(=O)c3cccnc3)CC[C@]3(C)[C@H](CC[C@@H]4[C@@]5(C)CC[C@H](O)C(C)(C)[C@@H]5CC[C@]43C)[C@@H]12 [Compound 14, 28-O-Nicotinoylbetulin] | 185 to 532 | 36.5 to 109 |  | 5 | 
C=C(C)[C@@H]1CC[C@]2(COC(=O)/C=C/c3ccccc3)CC[C@]3(C)[C@H](CC[C@@H]4[C@@]5(C)CC[C@H](O)C(C)(C)[C@@H]5CC[C@]43C)[C@@H]12 [Compound 15, 28-O-Cinnamoylbetulin] | 72.4 to 236 | 10.9 to 31.8 |  | 7 | 
C=C(C)[C@@H]1CC[C@]2(COC(=O)CCc3ccccc3)CC[C@]3(C)[C@H](CC[C@@H]4[C@@]5(C)CC[C@H](OC(=O)CCc6ccccc6)C(C)(C)[C@@H]5CC[C@]43C)[C@@H]12 [Compound 16, 3,28-Di-O-(dihydrocinnamoyl)betulin] | 176 to 1230 | 24.8 to 229 |  | 6 | 
C=C(C)[C@@H]1CC[C@]2(C=O)CC[C@]3(C)[C@H](CC[C@@H]4[C@@]5(C)CCC(=O)C(C)(C)[C@@H]5CC[C@]43C)[C@@H]12 [Compound 18, Betulonaldehyde] | 88.5 to 175 |  |  |  | 
C=C(C)[C@@H]1CC[C@]2(C(=O)O)CC[C@]3(C)[C@H](CC[C@@H]4[C@@]5(C)CC[C@H](OC(C)=O)C(C)(C)[C@@H]5CC[C@]43C)[C@@H]12 [Compound 21, 3-O-Acetylbetulinic acid] | 7.19 to 30.3 | 1.81 to 5.31 | 2 to 3 µM and < 10 µM | 5 | 
C=C(C)[C@@H]1CC[C@]2(CO)CC[C@]3(C)[C@H](CC[C@@H]4[C@@]5(C)CC[C@H](OC(C)=O)C(C)(C)[C@@H]5CC[C@]43C)[C@@H]12 [Compound 22, 3-O-Acetylbetulin] | 36.5 to 152 | 20.6 to 87.4 |  | 2 | 
C=C(C)[C@@H]1CC[C@]2(COC3CCCCO3)CC[C@]3(C)[C@H](CC[C@@H]4[C@@]5(C)CC[C@H](OC(C)=O)C(C)(C)[C@@H]5CC[C@]43C)[C@@H]12 (some centres unmarked) [Compound 23, 3-O-Acetyl-28-(tetrahydro-2H-pyran-2-yl)betulin] | 119 to 947 | 11 to 114 |  | 10 | 
C=C(C)C1CCC2(COC(C)=O)CCC3(C)C(CCC4C5(C)CCC(OC(C)=O)C(C)(C)C5CCC43C)C12 (centres unmarked) [Compound 24, 3,28-Di-O-acetylbetulin] | > 1000 | 52.6 to 756 | 199 µM | > 5 | [3H]TC transport inhibition (in words) ([2]; NTCP-HEK293 cells): no transport inhibition at all; IC50 [2, 7]: > 1000 µM
C=C(CO)C1CCC2(COC(C)=O)CCC3(C)C(CCC4C5(C)CCC(OC(C)=O)C(C)(C)C5CCC43C)C12 (centres unmarked) [Compound 25, 3,28-Di-O-acetyl-29-hydroxybetulin] | > 1000 | 5.29 to 13 | < 10 µM and 8 µM |  | [3H]TC transport inhibition (in words) ([2]; NTCP-HEK293 cells): no transport inhibition at all; IC50 [2, 7]: > 1000 µM
CC(=O)OC[C@]12CC[C@@H](C3(C)CO3)[C@@H]1[C@H]1CC[C@@H]3[C@@]4(C)CC[C@H](OC(C)=O)C(C)(C)[C@@H]4CC[C@@]3(C)[C@]1(C)CC2 (some centres unmarked) [Compound 26, 3,28-Di-O-acetyl-20,30-epoxybetulin] | 332 to 891 | 26.5 to 73 |  | 12 | 
C=C(C)C1CCC2(CO)CCC3(C)C(CCC4C5(C)CCC(OC(=O)C=Cc6ccc(O)c(O)c6)C(C)(C)C5CCC43C)C12 (centres unmarked) [Compound 27, 3-O-Caffeoylbetulin] | 85 to 195 | 3.35 to 10 | 6 µM | 22 | 
CC(=O)OC[C@]12CCC(C(C)C)=C1[C@H]1CC[C@@H]3[C@@]4(C)CC[C@H](OC(C)=O)C(C)(C)[C@@H]4CC[C@@]3(C)[C@]1(C)CC2 [Compound 28, 3,28-Di-O-acetyl-18,19-dehydro-20,29-dihydrobetulin] | > 1000 | 30 to 133 |  | > 16 | [3H]TC transport inhibition (in words) ([2]; NTCP-HEK293 cells): no transport inhibition at all; IC50 [2, 7]: > 1000 µM
CC1(C)CC[C@]23CC[C@]4(C)[C@H](CC[C@@H]5[C@@]6(C)CC[C@H](O)C(C)(C)[C@@H]6CC[C@]54C)[C@H]2[C@H]1OC3 [Compound 29, Allobetulin] |  |  |  |  | IC50 [1, 3]: 9.67 to 20.8 µM; IC50 ([2]; read-out: IC50 ([3H]TC uptake)): 212 to 675 µM
CC1(COc2ccc(CC3SC(=O)NC3=O)cc2)CCCCC1 (centres unmarked) [ciglitazone, reference compound] |  |  | 1.3 µM |  | 
